# Data from PubChem BioAssay AID1259407 (Chemical Carcinogenesis Research Information System (CCRIS), 2018).
# Activity calls are given as the source filed them. How the calls were made is not given here.
# Test system: CCRIS mutagenicity, Ames/micronucleus/aberration tests
# Assay: CCRIS mutagenicity studies
# [1] = Test System: AMES SALMONELLA TYPHIMURIUM, Strain/Indicator: TA98, Metabolic Activation: NONE, Method: STANDARD PLATE
# [2] = Test System: AMES SALMONELLA TYPHIMURIUM, Strain/Indicator: TA98, Metabolic Activation: RAT, LIVER, S-9, AROCLOR 1254, Method: STANDARD PLATE
compound,measurement,setting,value
FC(F)Cl,mutagenic call,"End Point: IN VITRO CHROMOSOMAL ABERRATIONS, Test System: CHL CELLS, Metabolic Activation: NONE",inactive; negative
same,mutagenic call,"End Point: IN VITRO CHROMOSOMAL ABERRATIONS, Test System: CHL CELLS, Metabolic Activation: RAT, LIVER, S-9, SODIUM PHENOBARBITAL AND 5,6-BENZOFLAVONE",inactive; negative
same,mutagenic call,"Test System: AMES SALMONELLA TYPHIMURIUM, Strain/Indicator: TA98, Metabolic Activation: NONE, Method: GAS EXPOSURE",inactive; negative
same,mutagenic call,"Test System: AMES SALMONELLA TYPHIMURIUM, Strain/Indicator: TA98, Metabolic Activation: RAT LIVER S-9, PHENOBARBITAL AND BETA-NAPHTHOFLAVONE (40%), Method: GAS EXPOSURE",inactive; negative
same,mutagenic call,"Test System: AMES SALMONELLA TYPHIMURIUM, Strain/Indicator: TA98, Metabolic Activation: RAT, LIVER, S-9, PHENOBARBITAL AND 5,6-BENZOFLAVONE, Method: GAS EXPOSURE",inactive; negative
same,mutagenic call,"Test System: AMES SALMONELLA TYPHIMURIUM, Strain/Indicator: TA100, Metabolic Activation: RAT LIVER S-9, PHENOBARBITAL AND BETA-NAPHTHOFLAVONE (40%), Method: GAS EXPOSURE",active; positive
same,mutagenic call,"Test System: AMES SALMONELLA TYPHIMURIUM, Strain/Indicator: TA100, Metabolic Activation: RAT, LIVER, S-9, PHENOBARBITAL AND 5,6-BENZOFLAVONE, Method: GAS EXPOSURE",active; positive
same,mutagenic call,"Test System: AMES SALMONELLA TYPHIMURIUM, Strain/Indicator: TA1535, Metabolic Activation: NONE, Method: GAS EXPOSURE",active; positive
same,mutagenic call,"Test System: AMES SALMONELLA TYPHIMURIUM, Strain/Indicator: TA1535, Metabolic Activation: RAT LIVER S-9, PHENOBARBITAL AND BETA-NAPHTHOFLAVONE (40%), Method: GAS EXPOSURE",active; positive
same,mutagenic call,"Test System: AMES SALMONELLA TYPHIMURIUM, Strain/Indicator: TA1535, Metabolic Activation: RAT, LIVER, S-9, AROCLOR 1254, Method: DESICCATOR",active; positive
same,mutagenic call,"Test System: AMES SALMONELLA TYPHIMURIUM, Strain/Indicator: TA1535, Metabolic Activation: RAT, LIVER, S-9, PHENOBARBITAL AND 5,6-BENZOFLAVONE, Method: GAS EXPOSURE",active; positive
same,mutagenic call,"Test System: AMES SALMONELLA TYPHIMURIUM, Strain/Indicator: TA1537, Metabolic Activation: NONE, Method: GAS EXPOSURE",inactive; negative
same,mutagenic call,"Test System: AMES SALMONELLA TYPHIMURIUM, Strain/Indicator: TA1537, Metabolic Activation: RAT LIVER S-9, PHENOBARBITAL AND BETA-NAPHTHOFLAVONE (40%), Method: GAS EXPOSURE",inactive; negative
same,mutagenic call,"Test System: AMES SALMONELLA TYPHIMURIUM, Strain/Indicator: TA1537, Metabolic Activation: RAT, LIVER, S-9, PHENOBARBITAL AND 5,6-BENZOFLAVONE, Method: GAS EXPOSURE",inactive; negative
same,mutagenic call,"Test System: E. COLI, Strain/Indicator: WP2 UVRA, Metabolic Activation: NONE, Method: GAS EXPOSURE",inactive; negative
same,mutagenic call,"Test System: E. COLI, Strain/Indicator: WP2 UVRA, Metabolic Activation: RAT, LIVER, S-9, PHENOBARBITAL AND 5,6-BENZOFLAVONE, Method: GAS EXPOSURE",inactive; negative
same,mutagenic call,"Test System: E.COLI, Strain/Indicator: WP2UVRA, Metabolic Activation: NONE, Method: GAS EXPOSURE",inactive; negative
same,mutagenic call,"Test System: E.COLI, Strain/Indicator: WP2UVRA, Metabolic Activation: RAT LIVER S-9, PHENOBARBITAL AND BETA-NAPHTHOFLAVONE (40%), Method: GAS EXPOSURE",inactive; negative
CC(=O)Nc1ccc2c3c(cccc13)-c1ccc(O)cc1-2,mutagenic call,[1],active; positive
same,mutagenic call,[2],active; positive
CCCCCC(=O)OCC,mutagenic call,"Test System: AMES SALMONELLA TYPHIMURIUM, Strain/Indicator: TA97, Metabolic Activation: NONE, Method: PREINCUBATION",inactive; negative
same,mutagenic call,"Test System: AMES SALMONELLA TYPHIMURIUM, Strain/Indicator: TA97, Metabolic Activation: RAT, LIVER, S-9, AROCLOR 1254, Method: PREINCUBATION",inactive; negative
same,mutagenic call,"Test System: AMES SALMONELLA TYPHIMURIUM, Strain/Indicator: TA102, Metabolic Activation: NONE, Method: PREINCUBATION",inactive; negative
same,mutagenic call,"Test System: AMES SALMONELLA TYPHIMURIUM, Strain/Indicator: TA102, Metabolic Activation: RAT, LIVER, S-9, AROCLOR 1254, Method: PREINCUBATION",inactive; negative
Nc1ccc(Oc2ccc(Cl)cc2Cl)cc1,mutagenic call,"Test System: AMES SALMONELLA TYPHIMURIUM, Strain/Indicator: TA98, Metabolic Activation: S-9, Method: STANDARD PLATE",active; positive
same,mutagenic call,"Test System: AMES SALMONELLA TYPHIMURIUM, Strain/Indicator: TA100, Metabolic Activation: S-9, Method: STANDARD PLATE",active; positive
same,mutagenic call,"Test System: AMES SALMONELLA TYPHIMURIUM, Strain/Indicator: YG1021, Metabolic Activation: S-9, Method: STANDARD PLATE",active; positive
same,mutagenic call,"Test System: AMES SALMONELLA TYPHIMURIUM, Strain/Indicator: YG1024, Metabolic Activation: S-9, Method: STANDARD PLATE",active; positive
same,mutagenic call,"Test System: AMES SALMONELLA TYPHIMURIUM, Strain/Indicator: YG1026, Metabolic Activation: S-9, Method: STANDARD PLATE",active; positive
same,mutagenic call,"Test System: AMES SALMONELLA TYPHIMURIUM, Strain/Indicator: YG1029, Metabolic Activation: S-9, Method: STANDARD PLATE",active; positive
O=c1[nH]cc(N(CCCl)CCCl)c(=O)[nH]1,mutagenic call,"Test System: AMES SALMONELLA TYPHIMURIUM, Strain/Indicator: TA1535, Metabolic Activation: NONE, Method: STANDARD PLATE",active; positive
same,mutagenic call,"Test System: E. COLI, Strain/Indicator: WP2 UVRA, Metabolic Activation: HAMSTER, LIVER, S-9, AROCLOR 1254, Method: STANDARD PLATE",active; positive
same,mutagenic call,"Test System: E. COLI, Strain/Indicator: WP2 UVRA, Metabolic Activation: HAMSTER, LIVER, S-9, Method: STANDARD PLATE",active; positive
same,mutagenic call,"Test System: E. COLI, Strain/Indicator: WP2 UVRA, Metabolic Activation: MOUSE, LIVER, S-9, Method: STANDARD PLATE",active; positive
same,mutagenic call,"Test System: E. COLI, Strain/Indicator: WP2 UVRA, Metabolic Activation: NONE, Method: STANDARD PLATE",active; positive
same,mutagenic call,"Test System: E. COLI, Strain/Indicator: WP2 UVRA, Metabolic Activation: RAT, LIVER, S-9, AROCLOR 1254, Method: STANDARD PLATE",active; positive
same,mutagenic call,"Test System: E. COLI, Strain/Indicator: WP2 UVRA, Metabolic Activation: RAT, LIVER, S-9, Method: STANDARD PLATE",active; positive
same,mutagenic call,"Test System: MOUSE LYMPHOMA, Strain/Indicator: L5178Y (TK+/TK-), Metabolic Activation: NONE, Method: SUSPENSION/PLATE",active; positive
same,mutagenic call,"Test System: MOUSE LYMPHOMA, Strain/Indicator: L5178Y (TK+/TK-), Metabolic Activation: RAT, LIVER, S-9, AROCLOR 1254, Method: SUSPENSION/PLATE",active; positive
CC1(C)CC[C@]2(C(=O)O)CC[C@]3(C)C(=CC[C@@H]4[C@@]5(C)C[C@H](O)[C@H](O)[C@@](C)(C(=O)O)[C@@H]5CC[C@]43C)[C@@H]2C1,mutagenic call,"Test System: AMES SALMONELLA TYPHIMURIUM, Strain/Indicator: TA97, Metabolic Activation: NONE, Method: STANDARD PLATE",inactive; negative
same,mutagenic call,"Test System: AMES SALMONELLA TYPHIMURIUM, Strain/Indicator: TA97, Metabolic Activation: RAT, LIVER, S-9, AROCLOR 1254, Method: STANDARD PLATE",inactive; negative
same,mutagenic call,[1],inactive; negative
same,mutagenic call,[2],inactive; negative
same,mutagenic call,"Test System: AMES SALMONELLA TYPHIMURIUM, Strain/Indicator: TA100, Metabolic Activation: NONE, Method: STANDARD PLATE",inactive; negative
same,mutagenic call,"Test System: AMES SALMONELLA TYPHIMURIUM, Strain/Indicator: TA100, Metabolic Activation: RAT, LIVER, S-9, AROCLOR 1254, Method: STANDARD PLATE",inactive; negative
same,mutagenic call,"Test System: AMES SALMONELLA TYPHIMURIUM, Strain/Indicator: TA102, Metabolic Activation: NONE, Method: STANDARD PLATE",inactive; negative
same,mutagenic call,"Test System: AMES SALMONELLA TYPHIMURIUM, Strain/Indicator: TA102, Metabolic Activation: RAT, LIVER, S-9, AROCLOR 1254, Method: STANDARD PLATE",inactive; negative
